According to ChEMBL document CHEMBL1287680, “C-11 diamino cryptolepine derivatives NSC748392, NSC748393, and NSC748394: anticancer profile and G-quadruplex stabilization” (Bioorg Med Chem Lett, 2010):

What was measured:
MDA-MB-231 = assay: cells; details: Homo sapiens
Description: Anticancer activity against human MDA-MB-231 cells

RXF 393 = assay: cells; details: Homo sapiens
Description: Anticancer activity against human RXF393 cells

SF-268 = assay: cells; details: Homo sapiens
Description: Anticancer activity against human SF268 cells

SK-OV-3 = assay: cells; details: Homo sapiens
Description: Anticancer activity against human SKOV3 cells

OVCAR-4 = assay: cells; details: Homo sapiens
Description: Anticancer activity against human OVCAR4 cells

A549 = assay: cells; details: Homo sapiens
Description: Anticancer activity against human A549 cells

HOP-92 = assay: cells; details: Homo sapiens
Description: Anticancer activity against human HOP92 cells

ACHN = assay: cells; details: Homo sapiens
Description: Anticancer activity against human ACHN cells

UACC-62 = assay: cells; details: Homo sapiens
Description: Anticancer activity against human UACC62 cells

COLO 205 = assay: cells; details: Homo sapiens
Description: Anticancer activity against human COLO205 cells

TK-10 = assay: cells; details: Homo sapiens
Description: Anticancer activity against human TK10 cells

cells = details: Homo sapiens
Description: Anticancer activity against human RPMI8266 cells

BT-549 = assay: cells; details: Homo sapiens
Description: Anticancer activity against human BT549 cells

K562 = assay: cells; details: Homo sapiens
Description: Anticancer activity against human K562 cells

SK-MEL-5 = assay: cells; details: Homo sapiens
Description: Anticancer activity against human SK-MEL-5 cells

IGROV-1 = assay: cells; details: Homo sapiens
Description: Anticancer activity against human IGROV1 cells

OVCAR-8 = assay: cells; details: Homo sapiens, OVCAR-8, read-out: pGI50 (converted)
Description: Anticancer activity against human OVCAR8 cells

SR = assay: cells; details: Homo sapiens
Description: Anticancer activity against human SR cells

SW-620 = assay: cells; details: Homo sapiens
Description: Anticancer activity against human SW620 cells

in vivo = details: mouse, cancer cell lines
Description: Toxicity in cancer cells containing hollow fiber implanted mouse

HCC 2998 = assay: cells; details: Homo sapiens
Description: Anticancer activity against human HCC2998 cells

LOX IMVI = assay: cells; details: Homo sapiens
Description: Anticancer activity against human LOXIMVI cells

Malme-3M = assay: cells; details: Homo sapiens
Description: Anticancer activity against human MALME-3M cells

SF-539 = assay: cells; details: Homo sapiens
Description: Anticancer activity against human SF539 cells

MDA-MB-468 = assay: cells; details: Homo sapiens
Description: Anticancer activity against human MDA-MB-468 cells

DU-145 = assay: cells; details: Homo sapiens
Description: Anticancer activity against human DU145 cells

T47D = assay: cells; details: Homo sapiens
Description: Anticancer activity against human T47D cells

HOP-62 = assay: cells; details: Homo sapiens
Description: Anticancer activity against human HOP62 cells

SNB-19 = assay: cells; details: Homo sapiens
Description: Anticancer activity against human SNB19 cells

NCI-H226 = assay: cells; details: Homo sapiens
Description: Anticancer activity against human NCI-H226 cells

SF-295 = assay: cells; details: Homo sapiens
Description: Anticancer activity against human SF295 cells

HT-29 = assay: cells; details: Homo sapiens
Description: Anticancer activity against human HT-29 cells

Description for physchem: Dissociation constant, pKa of the compound by UV-visible spectroscopy

C[n+]1c2ccccc2c(Nc2ccc(N3CCCCC3)cc2)c2[nH]c3ccccc3c21.[Cl-]
GI50 (MDA-MB-231; MDA-MB-231, read-out: pGI50 (converted)): 490 nM
CC50 (MDA-MB-231; MDA-MB-231, read-out: pLC50 (converted)): 6030 nM
TGI (MDA-MB-231; MDA-MB-231, read-out: pTGI): 2090 nM
GI50 (RXF 393; RXF 393, read-out: pGI50 (converted)): 174 nM
CC50 (RXF 393; RXF 393, read-out: pLC50 (converted)): 692 nM
TGI (RXF 393; RXF 393, read-out: pTGI): 347 nM
GI50 (SF-268; SF-268, read-out: pGI50 (converted)): 676 nM
CC50 (SF-268; SF-268, read-out: pLC50 (converted)): 6030 nM
TGI (SF-268; SF-268, read-out: pTGI): 2190 nM
GI50 (SK-OV-3; SK-OV-3, read-out: pGI50 (converted)): 513 nM
CC50 (SK-OV-3; SK-OV-3, read-out: pLC50 (converted)): 4270 nM
TGI (SK-OV-3; SK-OV-3, read-out: pTGI): 1860 nM
GI50 (OVCAR-4; OVCAR-4, read-out: pGI50 (converted)): 363 nM
CC50 (OVCAR-4; OVCAR-4, read-out: pLC50 (converted)): 3980 nM
TGI (OVCAR-4; OVCAR-4, read-out: pTGI): 1350 nM
GI50 (A549; A549, read-out: pGI50 (converted)): 162 nM
CC50 (A549; A549, read-out: pLC50 (converted)): > 100000 nM
TGI (A549; A549, read-out: pTGI): 589 nM
GI50 (HOP-92; HOP-92, read-out: pGI50 (converted)): 263 nM
CC50 (HOP-92; HOP-92, read-out: pLC50 (converted)): 5130 nM
TGI (HOP-92; HOP-92, read-out: pTGI): 1200 nM
GI50 (ACHN; read-out: pGI50 (converted)): 288 nM
CC50 (ACHN; read-out: pLC50 (converted)): 3890 nM
TGI (ACHN; read-out: pTGI): 1450 nM
GI50 (UACC-62; UACC-62, read-out: pGI50 (converted)): 427 nM
TGI (UACC-62; UACC-62, read-out: pTGI): 1910 nM
GI50 (COLO 205; COLO 205, read-out: pGI50 (converted)): 141 nM
CC50 (COLO 205; COLO 205, read-out: pLC50 (converted)): 851 nM
TGI (COLO 205; COLO 205, read-out: pTGI): 347 nM
GI50 (TK-10; TK-10, read-out: pGI50 (converted)): 1000 nM
CC50 (TK-10; TK-10, read-out: pLC50 (converted)): 5620 nM
TGI (TK-10; TK-10, read-out: pTGI): 2400 nM
GI50 (cells; RPMI8266, read-out: pGI50 (converted)): 158 nM
CC50 (cells; RPMI8266, read-out: pLC50 (converted)): 1000 nM
TGI (cells; RPMI8266, read-out: pTGI): 398 nM
GI50 (BT-549; BT-549, read-out: pGI50 (converted)): 1290 nM
CC50 (BT-549; BT-549, read-out: pLC50 (converted)): 5250 nM
TGI (BT-549; BT-549, read-out: pTGI): 2630 nM
CC50 (K562; K562, read-out: pLC50 (converted)): > 100000 nM
TGI (K562; K562, read-out: pTGI): > 100000 nM
GI50 (SK-MEL-5; SK-MEL-5, read-out: pGI50 (converted)): 229 nM
CC50 (SK-MEL-5; SK-MEL-5, read-out: pLC50 (converted)): 3470 nM
TGI (SK-MEL-5; SK-MEL-5, read-out: pTGI): 1200 nM
GI50 (IGROV-1; IGROV-1, read-out: pGI50 (converted)): 229 nM
CC50 (IGROV-1; IGROV-1, read-out: pLC50 (converted)): 3470 nM
TGI (IGROV-1; IGROV-1, read-out: pTGI): 1170 nM
GI50 (OVCAR-8): 316 nM
GI50 (SR; read-out: pGI50 (converted)): 3800 nM
CC50 (SR; read-out: pLC50 (converted)): > 100000 nM
TGI (SR; read-out: pTGI): > 100000 nM
GI50 (SW-620; SW-620, read-out: pGI50 (converted)): 105 nM
TGI (SW-620; SW-620, read-out: pTGI): 372 nM
MTD (in vivo): 160 mg/kg
pKa (physchem): 10
GI50 (HCC 2998; HCC 2998, read-out: pGI50 (converted)): 162 nM
CC50 (HCC 2998; HCC 2998, read-out: pLC50 (converted)): 813 nM
TGI (HCC 2998; HCC 2998, read-out: pTGI): 363 nM
GI50 (LOX IMVI; read-out: pGI50 (converted)): 148 nM
CC50 (LOX IMVI; read-out: pLC50 (converted)): 1450 nM
TGI (LOX IMVI; read-out: pTGI): 398 nM
GI50 (Malme-3M; read-out: pGI50 (converted)): 417 nM
CC50 (Malme-3M; read-out: pLC50 (converted)): 4570 nM
TGI (Malme-3M; read-out: pTGI): 1700 nM
GI50 (SF-539; SF-539, read-out: pGI50 (converted)): 646 nM
CC50 (SF-539; SF-539, read-out: pLC50 (converted)): 4470 nM
TGI (SF-539; SF-539, read-out: pTGI): 1950 nM
GI50 (MDA-MB-468; MDA-MB-468, read-out: pGI50 (converted)): 135 nM
CC50 (MDA-MB-468; MDA-MB-468, read-out: pLC50 (converted)): 891 nM
TGI (MDA-MB-468; MDA-MB-468, read-out: pTGI): 347 nM
GI50 (DU-145; DU-145, read-out: pGI50 (converted)): 398 nM
CC50 (DU-145; DU-145, read-out: pLC50 (converted)): 4170 nM
TGI (DU-145; DU-145, read-out: pTGI): 1480 nM
GI50 (T47D; read-out: pGI50 (converted)): 214 nM
TGI (T47D; read-out: pTGI): 603 nM
GI50 (HOP-62; HOP-62, read-out: pGI50 (converted)): 741 nM
CC50 (HOP-62; HOP-62, read-out: pLC50 (converted)): 5250 nM
TGI (HOP-62; HOP-62, read-out: pTGI): 2190 nM
GI50 (SNB-19; SNB-19, read-out: pGI50 (converted)): 427 nM
CC50 (SNB-19; SNB-19, read-out: pLC50 (converted)): 4370 nM
TGI (SNB-19; SNB-19, read-out: pTGI): 1780 nM
GI50 (NCI-H226; NCI-H226, read-out: pGI50 (converted)): 269 nM
TGI (NCI-H226; NCI-H226, read-out: pTGI): 1860 nM
GI50 (SF-295; SF-295, read-out: pGI50 (converted)): 398 nM
CC50 (SF-295; SF-295, read-out: pLC50 (converted)): 4370 nM
TGI (SF-295; SF-295, read-out: pTGI): 1580 nM
GI50 (HT-29; HT-29, read-out: pGI50 (converted)): 178 nM
CC50 (HT-29; HT-29, read-out: pLC50 (converted)): 2140 nM
TGI (HT-29; HT-29, read-out: pTGI): 550 nM
